# Assay: Stability of DNPs by DLS after storage at 5° C.
# Format: physicochemical
# Set-up: key: Excellent: the original sizes and distribution types remained almost the same after storage; Good: the original sizes and distribution types changed slightly (size difference was less than 100 nm) or the original size remained almost the same but the DLS curve showed more size distributions after storage
# Conditions: after 11 days at 5° C.
# Procedure: The stability of the DNPs as assayed by DLS. All the samples are prepared in acetate buffer. The stabilities of the constructs were ranked: Excellent (in bold)—the original sizes and distribution remains almost the same after storage; Good—the original relatively big sizes became smaller or broad size distribution became narrower; Not stable—the original relatively big sizes or broad size distribution remained almost the similar level, or the original relatively small sizes became bigger or narrow size distribution became broader.
row,SMILES,Ranking of stability
1,CCCCCCCCCCCCCCCCCOc1cc(CNC(=O)c2cc(OCCOCCOCCOC(=O)CCCN3CCCCC3)c(OCCCOCOCCOCc3ccccc3)c(OCCOCCOCCOC(=O)CCCN3CCCCC3)c2)cc(OCCCCCCCCCCCCCCCCC)c1 [IAJD 159],Excellent

# Same assay, conditions: after 14 days at 5° C.
row,SMILES,Ranking of stability
1,"CCCCCCCCCCCCCCOc1cc(COC(=O)CCCN2CCN(CCO)CC2)cc(OCCCCCCCCCCCCC)c1 [IAJD 172, 3-(Tetradecyloxy)-5-(tridecyloxy)benzyl 4-(4-(2-hydroxyethyl)piperazin-1-yl)butanoate]",Excellent

# Same assay, conditions: after 19 days at 5° C.
row,SMILES,Ranking of stability
1,CCCCCCCCCCCCCCOc1cc(COC(=O)c2cc(OCCOCCOCCCC(=O)CCCN3CCCCC3)c(OCCOCCOCCOCc3ccccc3)c(OCCOCCOCCOC(=O)CCCN3CCCCC3)c2)cc(OCCCCCCCCCCC)c1 [IAJD 156],Excellent
2,"CCCCCCCCCCCCCCCCOc1cc(COC(=O)CCCN2CCN(C)CC2)cc(OCCCCCCCCCCCCCCC)c1 [IAJD 149, 3-(Hexadecyloxy)-5-(pentadecyloxy)benzyl 4-(4-methylpiperazin-1-yl)butanoate]",Excellent

# Same assay, conditions: after 21 days at 5° C.
row,SMILES,Ranking of stability
1,"CCCCCCCCCCCCCOc1cc(COC(=O)CCCN2CCN(CCO)CC2)cc(OCC(CC)CCCC)c1 (stereo not drawn) [IAJD 162, 3-((2-Ethylhexyl)oxy)-5-(tridecyloxy)benzyl 4-(4-(2-hydroxyethyl)piperazin-1-yl)butanoate]",Excellent
2,"CCCCCCCCCCCCCCCCCCOc1cc(COC(=O)CCCN2CCN(C)CC2)cc(OCCCCCCCCCCCCC)c1 [IAJD 177, 3-(Octadecyloxy)-5-(tridecyloxy)benzyl 4-(4-methylpiperazin-1-yl)butanoate]",Excellent
3,"CCCCCCCCCCCCCCCCCCOc1cc(COC(=O)CCCN2CCN(CCO)CC2)cc(OCCCCCCCCCCCCC)c1 [IAJD 178, 3-(Octadecyloxy)-5-(tridecyloxy)benzyl 4-(4-(2-hydroxyethyl)piperazin-1-yl)butanoate]",Excellent

# Further lines, results first:
row,Ranking of stability,SMILES
1,Excellent,"CCCCCCCCCCCCCOc1cc(COC(=O)CCCN2CCN(C)CC2)cc(OCC(CC)CCCC)c1 (stereo not drawn) [IAJD 161, 3-((2-Ethylhexyl)oxy)-5-(tridecyloxy)benzyl 4-(4-methylpiperazin-1-yl)butanoate]"
2,Good,"CCCCCCCCCCCCCCCCOc1cc(COC(=O)CCCN2CCN(C)CC2)cc(OCCCCCCCCCCCCC)c1 [IAJD 173, 3-(Hexadecyloxy)-5-(tridecyloxy)benzyl 4-(4-methylpiperazin-1-yl)butanoate]"

# Same assay, conditions: after 27 days at 5° C.
row,SMILES,Ranking of stability
1,"CCCCCCCCCCCCCCCOc1cc(COC(=O)CCCN2CCN(C)CC2)cc(OCCCCCCCCCCCCC)c1 [IAJD 145, 3-(pentadecyloxy)-5-(tridecyloxy)benzyl 4-(4-methylpiperazin-1-yl)butanoate]",Excellent
2,"CCCCCCCCCCCCCCCOc1cc(COC(=O)CCCN2CCN(CCO)CC2)cc(OCC(CC)CCCC)c1 (stereo not drawn) [IAJD 136, 3-((2-Ethylhexyl)oxy)-5-(pentadecyloxy)benzyl 4-(4-(2-hydroxyethyl)piperazin-1-yl)butanoate]",Excellent

# Further lines, results first:
row,Ranking of stability,SMILES
1,Excellent,"CCCCCCCCCCCCCCCOc1cc(COC(=O)CCCN2CCN(CCO)CC2)cc(OCCCCCCCCCCCCC)c1 [IAJD 146, 3-(Pentadecyloxy)-5-(tridecyloxy)benzyl 4-(4-(2-hydroxyethyl)piperazin-1-yl)butanoate]"
2,Excellent,"CCCCCCCCCCCCCCCOc1cc(COC(=O)CCCN2CCN(C)CC2)cc(OCC(CC)CCCC)c1 (stereo not drawn) [IAJD 135, 3-((2-Ethylhexyl)oxy)-5-(pentadecyloxy)benzyl 4-(4-methylpiperazin-1-yl)butanoate]"
3,Excellent,"CCCCCCCCCCCCCCCOc1cc(COC(=O)CCCN2CCN(CCO)CC2)cc(OCCCCCCCCCC)c1 [IAJD 142, 3-(Decyloxy)-5-(pentadecyloxy)benzyl 4-(4-(2-hydroxyethyl)piperazin-1-yl)butanoate]"
4,Excellent,"CCCCCCCCCCCCCCCOc1cc(COC(=O)CCCN2CCN(C)CC2)cc(OCCCCCCCCCC)c1 [IAJD 141, 3-(Decyloxy)-5-(pentadecyloxy)benzyl 4-(4-methylpiperazin-1-yl)butanoate]"

# Same assay, conditions: after 35 days at 5° C.
row,SMILES,Ranking of stability
1,"CCCCCCCCCCCCCCCCCCOc1cc(COC(=O)CCCN2CCN(CCO)CC2)cc(OCCCCCCCCCCCCCCC)c1 [IAJD 154, 3-(Octadecyloxy)-5-(pentadecyloxy)benzyl 4-(4-(2-hydroxyethyl)piperazin-1-yl)butanoate]",Excellent
2,"CCCCCCCCCCCCCCCCCCOc1cc(COC(=O)CCCN2CCN(C)CC2)cc(OCCCCCCCCCCCCCCC)c1 [IAJD 153, 3-(Octadecyloxy)-5-(pentadecyloxy)benzyl 4-(4-methylpiperazin-1-yl)butanoate]",Excellent
3,"CCCCCCCCCCCCCCCOc1cc(COC(=O)CCCN2CCN(CCO)CC2)cc(OCCCCCCCC)c1 [IAJD 138, 3-(Octyloxy)-5-(pentadecyloxy)benzyl 4-(4-(2-hydroxyethyl)piperazin-1-yl)butanoate]",Good

# Same assay, conditions: after 62 days at 5° C.
row,SMILES,Ranking of stability
1,"CCCCCCCCCCCOc1cc(COC(=O)CCCN2CCN(CCO)CC2)cc(OCC(CC)CCCC)c1 (stereo not drawn) [IAJD 130, 3-((2-Ethylhexyl)oxy)-5-(undecyloxy)benzyl 4-(4-(2-hydroxyethyl)piperazin-1-yl)butanoate]",Excellent
2,"CCCCCCCCCCCCOc1cc(COC(=O)CCCN2CCN(CCO)CC2)cc(OCCCCCCCCCCC)c1 [IAJD 124, 3-(Dodecyloxy)-5-(undecyloxy)benzyl 4-(4-(2-hydroxyethyl)piperazin-1-yl)butanoate]",Good
3,"CCCCCCCCCCCCCCCOc1cc(COC(=O)CCCN2CCN(CCO)CC2)cc(OCCCCCCCCCCC)c1 [IAJD 119, 3-(Pentadecyloxy)-5-(undecyloxy)benzyl 4-(4-(2-hydroxyethyl)piperazin-1-yl)butanoate]",Good

# Same assay, conditions: after 70 days at 5° C.
row,SMILES,Ranking of stability
1,"CCCCCCCCCCCCCOc1cc(COC(=O)CCCN2CCN(CCO)CC2)cc(OCCCCCCCCCCC)c1 [IAJD 117, 3-(Tridecyloxy)-5-(undecyloxy)benzyl 4-(4-(2-hydroxyethyl)piperazin-1-yl)butanoate]",Excellent
2,"CCCCCCCCCCCOc1cc(COC(=O)CCCN2CCN(CCO)CC2)cc(OCCCCCCCC)c1 [IAJD 113, 3-(Octyloxy)-5-(undecyloxy)benzyl 4-(4-(2-hydroxyethyl)piperazin-1-yl)butanoate]",Excellent
3,"CCCCCCCCCCCCCCCCOc1cc(COC(=O)CCCN2CCN(CCO)CC2)cc(OCCCCCCCCCCC)c1 [IAJD 120, 3-(Hexadecyloxy)-5-(undecyloxy)benzyl 4-(4-(2-hydroxyethyl)piperazin-1-yl)butanoate]",Excellent

# Same assay, conditions: after 75 days at 5° C.
row,SMILES,Ranking of stability
1,CCCCCCCCCCCOc1cc(COC(=O)c2cc(OCCOCCOCCCC(=O)CCCN3CCCCC3)c(OCCOCCOCCOCc3ccccc3)c(OCCOCCOCCOC(=O)CCCN3CCCCC3)c2)cc(OCCCCCCCCCCC)c1 [IAJD 111],Excellent
2,CCCCCCCCCCCCOc1cc(COC(=O)c2cc(OCCOCCOCCCC(=O)CCCN3CCCCC3)c(OCCOCCOCCOCc3ccccc3)c(OCCOCCOCCOC(=O)CCCN3CCCCC3)c2)cc(OCCCCCCCCCCCC)c1 [IAJD 110],Excellent
3,"CCCCCCCCCCCOc1cc(COC(=O)CCCN2CCN(C)CC2)cc(OCCCCCCCCCC)c1 [IAJD 114, 3-(Decyloxy)-5-(undecyloxy)benzyl 4-(4-methylpiperazin-1-yl)butanoate]",Good
